From PubChem BioAssay (NCI)
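Values below derive from 48-hour exposures of cells grown in 96-well plates, with endpoints linearly interpolated between the two concentrations bracketing the appropriate inhibition level. GI50 marks 50% less growth. Definition used: TGI = concentration required for complete inhibition of growth.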

Columns and labels:
Test in all cases: DTP human tumour cell line panel, 48 h
786-0 renal = tested on: 786-0 renal
A498 renal = tested on: A498 renal
ACHN renal = tested on: ACHN renal
CCRF-CEM leukemia = tested on: CCRF-CEM leukemia
SK-OV-3 ovarian = tested on: SK-OV-3 ovarian
SNB-19 CNS = tested on: SNB-19 CNS
SW-620 colon = tested on: SW-620 colon
TK-10 renal = tested on: TK-10 renal
UACC-62 melanoma = tested on: UACC-62 melanoma

Row | SMILES | TGI (786-0 renal) [µM] | TGI (A498 renal) [µM] | TGI (ACHN renal) [µM] | TGI (CCRF-CEM leukemia) [µM] | TGI (SK-OV-3 ovarian) [µM] | TGI (SNB-19 CNS) [µM] | TGI (SW-620 colon) [µM] | TGI (TK-10 renal) [µM] | TGI (UACC-62 melanoma) [µM] | GI50 (786-0 renal) [µM] | GI50 (ACHN renal) [µM] | GI50 (SNB-19 CNS) [µM] | GI50 (SW-620 colon) [µM] | GI50 (TK-10 renal) [µM] | GI50 (UACC-62 melanoma) [µM] | GI50 (A498 renal) [µM] | GI50 (CCRF-CEM leukemia) [µM] | GI50 (SK-OV-3 ovarian) [µM]
1 | CN/N=C(/Cc1occc(=O)c1O)C(=O)Nc1ccc(C)c(C)c1 | > 100 | > 100 | > 100 | > 100 | > 100 | > 100 | > 100 | > 100 | > 100 |  |  |  |  |  |  |  |  | 
2 | CC(=O)Nc1ccc(/C=C(\NC(=O)c2ccccc2)c2nc3ccc4c(c3[nH]2)C(=O)c2ccccc2C4=O)cc1 | > 100 | > 100 |  | > 100 | > 100 | > 100 | > 100 | > 100 | > 100 |  |  |  |  |  |  |  |  | 
3 | COc1cccc(N2C(=O)c3c(c4[nH]c5ccccc5c4c4ccc(C(C)(C)C)cc34)C2=O)c1 | > 100 | > 100 | > 100 | > 100 | > 100 | > 100 | > 100 | > 100 | > 100 |  |  |  |  |  |  |  |  | 
4 | COc1nc2c(OC)cccc2c(OC)c1C=O | > 100 |  | > 100 | > 100 | > 100 | > 100 | > 100 | > 100 | > 100 |  |  |  |  |  |  |  |  | 
5 | C/C(=N\NC(=S)N1CCCCCC1)c1nccnc1C | > 100 | 12.9 | 3.24 |  |  |  | > 100 | > 100 | 1.3 |  |  |  |  |  |  |  |  | 
6 | CC(=O)N1CCC2(C=Nc3ccccc32)CC1 | > 100 | > 100 | > 100 | > 100 | > 100 |  | > 100 | > 100 | > 100 |  |  |  |  |  |  |  |  | 
7 | COC(=O)C1(C)C=C(Nc2ccccc2)C(=O)N1c1ccccc1 (configuration not stated) | > 100 |  | > 100 | > 100 | > 100 | > 100 | > 100 | > 100 | > 100 |  |  |  |  |  |  |  |  | 
8 | CC(=O)N(C)OC(=O)CC(=O)c1ccccc1 | > 100 |  | > 100 | > 100 | > 100 | > 100 | > 100 | > 100 | > 100 |  |  |  |  |  |  |  |  | 
9 | CCCCCCCCCCCCCS(=O)(=O)O | > 100 | > 100 | > 100 | > 100 |  | > 100 | > 100 | > 100 | > 100 |  |  |  |  |  |  |  |  | 
10 | CC(Cn1c2c3ccccc3ccc2c2oc(=O)c3ccccc3c21)N(C)C (configuration not stated) | > 100 |  | > 100 | > 100 |  | > 100 | > 100 | > 100 | > 100 |  |  |  |  |  |  |  |  | 
11 | CN(C)/[N+]([O-])=N/Oc1cc(Nc2cccc(C(=O)O)c2)c([N+](=O)[O-])cc1[N+](=O)[O-] | > 100 |  | > 100 |  |  | > 100 | > 100 | > 100 | > 100 | > 100 | > 100 | 53.6 | > 100 | > 100 | 50.1 |  |  | 
12 | CCCN1C(=O)C/C(=C\C(C)=O)Nc2ccccc21 | > 100 |  | > 100 | > 100 | > 100 | > 100 | > 100 | > 100 | > 100 |  |  |  |  |  |  |  |  | 
13 | CCCc1c2c([nH]c(=O)c1C)C(=O)c1[nH]c(=O)c(C)c(CCC)c1C2=O | > 100 | > 100 | 47.6 | 73.2 |  | 55 | 20.2 | > 100 |  |  |  |  |  |  |  |  |  | 
14 | CSC(=S)c1ccc(C(=S)SC)cc1 | > 100 | > 100 |  |  | > 100 | > 100 | > 100 | > 100 | > 100 |  |  |  |  |  |  |  |  | 
15 | CC(C)(C)NNC(=O)/C(=C/c1ccc(Oc2ccc(Cl)c(Cl)c2)cc1)NC(=O)c1ccccc1 | > 100 | > 100 | > 100 | > 100 | > 100 | > 100 |  | > 100 | > 100 |  |  |  |  |  |  |  |  | 
16 | COc1cc(Nc2cnc3cc(C(F)(F)F)ccc3n2)cc(OC)c1OC | > 100 |  | > 100 | > 100 | > 100 | > 100 | > 100 | > 100 | > 100 |  |  |  |  |  |  |  |  | 
17 | O=C(CCN1CCN(c2cccc(Cl)c2)CC1)N1CCc2c([nH]c3ccccc23)C1c1cccnc1 (configuration not stated) | 18.7 | 20.2 | 21.6 | > 100 | 28.8 | 26.9 | 23.8 | 10.9 |  | 5.96 | 6.34 |  |  | 2.53 |  | 5.56 | 6.62 | 13.4
18 | CC(C)C(C(=O)O)N(CC1(O)OCC(O)C(O)C1O)N=O (configuration not stated) | > 100 | > 100 | > 100 | > 100 | > 100 |  | > 100 | > 100 | > 100 |  |  |  |  |  |  |  |  | 
19 | O=C(Cc1nc2ccccc2s1)C(=O)Nc1ccc(Cl)cc1 | > 100 | > 100 | > 100 |  | > 100 | > 100 | > 100 | > 100 | > 100 |  |  |  |  |  |  |  |  | 
20 | COC(=O)c1c[nH]cc1CCc1c[nH]cc1C(=O)OC | > 100 | > 100 | > 100 | > 100 | > 100 | > 100 | > 100 | > 100 |  |  |  |  |  |  |  |  |  | 
